Patent US12077503B2, “Substituted cyclic amides and their use as herbicides” (FMC CORPORATION, priority 2015, dated 2024)

Experiments:
Assay type in all cases: in vivo
Kochia (Kochia scoparia) [1] = experiment: Test A preemergence; settings: Preemergence; for Plant response rating, Kochia: 125 g ai/ha, visual injury after approximately 10 d, 0 to 100 scale where 0 is no effect and 100 is complete control; for Kochia plant response rating (0 to 100 scale, 0 is no effect, 100 is complete control): 500 g ai/ha, visual injury approx. 10 d
In short: (§1)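 Preemergence soil spray on seeded pots or post-emergence spray on 1–2 leaf plants, in loam–sand blend. Greenhouse ~10 d. Visual rating 0–100 against untreated plants.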

[2] = tested on: barnyardgrass (Echinochloa crus-galli); experiment: Test A preemergence; settings: Preemergence; for Plant response rating, Barnyardgrass: 125 g ai/ha, visual injury after approximately 10 d, 0 to 100 scale where 0 is no effect and 100 is complete control; for Barnyardgrass plant response rating (0 to 100 scale, 0 is no effect, 100 is complete control): 500 g ai/ha, visual injury approx. 10 d
In short: as §1

[3] = tested on: giant foxtail (Setaria faberii); experiment: Test A preemergence; settings: Preemergence; for Plant response rating, Foxtail, Giant: 125 g ai/ha, visual injury after approximately 10 d, 0 to 100 scale where 0 is no effect and 100 is complete control; for Foxtail, Giant plant response rating (0 to 100 scale, 0 is no effect, 100 is complete control): 500 g ai/ha, visual injury approx. 10 d
In short: as §1

[4] = tested on: pigweed (Amaranthus retroflexus); experiment: Test A preemergence; settings: Preemergence; for Plant response rating, Pigweed: 125 g ai/ha, visual injury after approximately 10 d, 0 to 100 scale where 0 is no effect and 100 is complete control; for Pigweed plant response rating (0 to 100 scale, 0 is no effect, 100 is complete control): 500 g ai/ha, visual injury approx. 10 d
[5] = tested on: ragweed (common ragweed, Ambrosia elatior); experiment: Test A preemergence; settings: Preemergence; for Plant response rating, Ragweed: 125 g ai/ha, visual injury after approximately 10 d, 0 to 100 scale where 0 is no effect and 100 is complete control; for Ragweed plant response rating (0 to 100 scale, 0 is no effect, 100 is complete control): 500 g ai/ha, visual injury approx. 10 d
In short: as §1

[6] = tested on: ryegrass, Italian (Italian ryegrass, Lolium multiflorum); experiment: Test A preemergence; settings: Preemergence; for Plant response rating, Ryegrass, Italian: 125 g ai/ha, visual injury after approximately 10 d, 0 to 100 scale where 0 is no effect and 100 is complete control; for Ryegrass, Italian plant response rating (0 to 100 scale, 0 is no effect, 100 is complete control): 500 g ai/ha, visual injury approx. 10 d
In short: as §1

[7] = tested on: Galium (catchweed bedstraw, Galium aparine); experiment: Test A postemergence; settings: for Galium plant response rating: 125 g ai/ha, postemergence, visual injury rating on 0 to 100 scale (0 no effect, 100 complete control), approx. 10 d; for Plant response rating, Galium: Postemergence, 500 g ai/ha, 0 to 100 scale where 0 is no effect and 100 is complete control
In short: as §1

Kochia (Kochia scoparia) [8] = experiment: Test A postemergence; settings: for Kochia plant response rating: 125 g ai/ha, postemergence, visual injury rating on 0 to 100 scale (0 no effect, 100 complete control), approx. 10 d; for Plant response rating, Kochia: Postemergence, 500 g ai/ha, 0 to 100 scale where 0 is no effect and 100 is complete control
In short: as §1

[9] = tested on: barnyardgrass (Echinochloa crus-galli); experiment: Test A postemergence; settings: for Barnyardgrass plant response rating: 125 g ai/ha, postemergence, visual injury rating on 0 to 100 scale (0 no effect, 100 complete control), approx. 10 d; for Plant response rating, Barnyardgrass: Postemergence, 500 g ai/ha, 0 to 100 scale where 0 is no effect and 100 is complete control
In short: as §1

[10] = tested on: blackgrass (Alopecurus myosuroides); experiment: Test A postemergence; settings: for Blackgrass plant response rating: 125 g ai/ha, postemergence, visual injury rating on 0 to 100 scale (0 no effect, 100 complete control), approx. 10 d; for Plant response rating, Blackgrass: Postemergence, 500 g ai/ha, 0 to 100 scale where 0 is no effect and 100 is complete control
In short: as §1

corn (Zea mays) = experiment: Test A postemergence; settings: for Corn plant response rating: 125 g ai/ha, postemergence, visual injury rating on 0 to 100 scale (0 no effect, 100 complete control), approx. 10 d; for Plant response rating, Corn: Postemergence, 500 g ai/ha, 0 to 100 scale where 0 is no effect and 100 is complete control
In short: as §1

[11] = tested on: giant foxtail (Setaria faberii); experiment: Test A postemergence; settings: for Foxtail, Giant plant response rating: 125 g ai/ha, postemergence, visual injury rating on 0 to 100 scale (0 no effect, 100 complete control), approx. 10 d; for Plant response rating, Foxtail, Giant: Postemergence, 500 g ai/ha, 0 to 100 scale where 0 is no effect and 100 is complete control
In short: as §1

[12] = tested on: pigweed (Amaranthus retroflexus); experiment: Test A postemergence; settings: for Pigweed plant response rating: 125 g ai/ha, postemergence, visual injury rating on 0 to 100 scale (0 no effect, 100 complete control), approx. 10 d; for Plant response rating, Pigweed: Postemergence, 500 g ai/ha, 0 to 100 scale where 0 is no effect and 100 is complete control
In short: as §1

[13] = tested on: ragweed (common ragweed, Ambrosia elatior); experiment: Test A postemergence; settings: for Ragweed plant response rating: 125 g ai/ha, postemergence, visual injury rating on 0 to 100 scale (0 no effect, 100 complete control), approx. 10 d; for Plant response rating, Ragweed: Postemergence, 500 g ai/ha, 0 to 100 scale where 0 is no effect and 100 is complete control
In short: as §1

[14] = tested on: ryegrass, Italian (Italian ryegrass, Lolium multiflorum); experiment: Test A postemergence; settings: for Ryegrass, Italian plant response rating: 125 g ai/ha, postemergence, visual injury rating on 0 to 100 scale (0 no effect, 100 complete control), approx. 10 d; for Plant response rating, Ryegrass, Italian: Postemergence, 500 g ai/ha, 0 to 100 scale where 0 is no effect and 100 is complete control
In short: as §1

[15] = tested on: wheat (Triticum aestivum); experiment: Test A postemergence; settings: for Wheat plant response rating: 125 g ai/ha, postemergence, visual injury rating on 0 to 100 scale (0 no effect, 100 complete control), approx. 10 d; for Plant response rating, Wheat: Postemergence, 500 g ai/ha, 0 to 100 scale where 0 is no effect and 100 is complete control
In short: as §1

[16] = tested on: barnyardgrass (Echinochloa crus-galli); experiment: Test B flooded paddy test; settings: Flood, 250 g ai/ha; 0 to 100 scale where 0 is no effect and 100 is complete control; 13 to 15 d
In short: (§2)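 Percent control, visually estimated after 13–15 d in the greenhouse on a 0–100 basis, compares treated pots with untreated ones; compound was put into paddy water 3 cm above the soil when plants had two leaves.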

[17] = tested on: ducksalad (Heteranthera limosa); experiment: Test B flooded paddy test; settings: Flood, 250 g ai/ha; 0 to 100 scale where 0 is no effect and 100 is complete control; 13 to 15 d
In short: as §2

rice (Oryra sativa) = experiment: Test B flooded paddy test; settings: Flood, 250 g ai/ha; 0 to 100 scale where 0 is no effect and 100 is complete control; 13 to 15 d
In short: as §2

[18] = tested on: sedge, umbrella (small-flower umbrella sedge, Cyperus difformis); experiment: Test B flooded paddy test; settings: Flood, 250 g ai/ha; 0 to 100 scale where 0 is no effect and 100 is complete control; 13 to 15 d
In short: as §2

| SMILES | Plant response rating, Kochia (Kochia (Kochia scoparia) [1]) | Kochia plant response rating (0 to 100 scale, 0 is no effect, 100 is complete control) (Kochia (Kochia scoparia) [1]) | Plant response rating, Barnyardgrass [2] | Barnyardgrass plant response rating (0 to 100 scale, 0 is no effect, 100 is complete control) [2] | Plant response rating, Foxtail, Giant [3] | Foxtail, Giant plant response rating (0 to 100 scale, 0 is no effect, 100 is complete control) [3] | Plant response rating, Pigweed [4] | Pigweed plant response rating (0 to 100 scale, 0 is no effect, 100 is complete control) [4] | Plant response rating, Ragweed [5] | Ragweed plant response rating (0 to 100 scale, 0 is no effect, 100 is complete control) [5] | Plant response rating, Ryegrass, Italian [6] | Ryegrass, Italian plant response rating (0 to 100 scale, 0 is no effect, 100 is complete control) [6] | Galium plant response rating [7] | Plant response rating, Galium [7] | Kochia plant response rating (Kochia (Kochia scoparia) [8]) | Plant response rating, Kochia (Kochia (Kochia scoparia) [8]) | Barnyardgrass plant response rating [9] | Plant response rating, Barnyardgrass [9] | Blackgrass plant response rating [10] | Plant response rating, Blackgrass [10] | also measured |
| --- | --- | --- | --- | --- | --- | --- | --- | --- | --- | --- | --- | --- | --- | --- | --- | --- | --- | --- | --- | --- | --- |
| C=C(Cl)CN1CC(c2cccc(C(F)(F)F)c2)C(C(=O)Nc2ccccc2F)C1=O (stereo not drawn) [Compound 482] | 0 | 0 | 0 | 10 | 70 | 80 | 0 | 0 | 0 | 0 | 0 | 0 | 0 | 0 | 0 | 0 | 0 | 20 | 0 | 0 | Corn plant response rating (corn (Zea mays)): 0; Plant response rating, Corn (corn (Zea mays)): 0; Foxtail, Giant plant response rating [11]: 0; Plant response rating, Foxtail, Giant [11]: 20; Pigweed plant response rating [12]: 0; Plant response rating, Pigweed [12]: 0; Ragweed plant response rating [13]: 0; Plant response rating, Ragweed [13]: 0; Ryegrass, Italian plant response rating [14]: 0; Plant response rating, Ryegrass, Italian [14]: 0; Wheat plant response rating [15]: 0; Plant response rating, Wheat [15]: 0; Plant response rating, Barnyardgrass [16]: 0; Plant response rating, Ducksalad [17]: 0; Plant response rating, Rice (rice (Oryra sativa)): 0; Plant response rating, Sedge, Umbrella [18]: 0 |
| O=C(Nc1ccccc1F)C1C(=O)N(CC=CCl)CC1c1cccc(C(F)(F)F)c1 (stereo not drawn) [Compound 483] | 0 | 0 | 0 | 70 | 70 | 90 | 0 | 0 | 0 | 0 | 0 | 30 | 0 | 0 | 0 | 20 | 20 | 60 | 0 | 0 | Corn plant response rating (corn (Zea mays)): 0; Plant response rating, Corn (corn (Zea mays)): 0; Foxtail, Giant plant response rating [11]: 20; Plant response rating, Foxtail, Giant [11]: 70; Pigweed plant response rating [12]: 0; Plant response rating, Pigweed [12]: 0; Ragweed plant response rating [13]: 0; Plant response rating, Ragweed [13]: 0; Ryegrass, Italian plant response rating [14]: 0; Plant response rating, Ryegrass, Italian [14]: 0; Wheat plant response rating [15]: 0; Plant response rating, Wheat [15]: 0; Plant response rating, Barnyardgrass [16]: 0; Plant response rating, Ducksalad [17]: 30; Plant response rating, Rice (rice (Oryra sativa)): 0; Plant response rating, Sedge, Umbrella [18]: 0 |
| O=C(Nc1ccccc1F)C1C(=O)N(CC=CBr)CC1c1cccc(C(F)(F)F)c1 (stereo not drawn) [Compound 484] | 0 | 0 | 0 | 40 | 50 | 90 | 0 | 0 | 0 | 0 | 0 | 0 | 0 | 0 | 0 | 0 | 0 | 50 | 0 | 0 | Corn plant response rating (corn (Zea mays)): 0; Plant response rating, Corn (corn (Zea mays)): 0; Foxtail, Giant plant response rating [11]: 0; Plant response rating, Foxtail, Giant [11]: 40; Pigweed plant response rating [12]: 0; Plant response rating, Pigweed [12]: 0; Ragweed plant response rating [13]: 0; Plant response rating, Ragweed [13]: 0; Ryegrass, Italian plant response rating [14]: 0; Plant response rating, Ryegrass, Italian [14]: 0; Wheat plant response rating [15]: 0; Plant response rating, Wheat [15]: 0; Plant response rating, Barnyardgrass [16]: 0; Plant response rating, Ducksalad [17]: 0; Plant response rating, Rice (rice (Oryra sativa)): 0; Plant response rating, Sedge, Umbrella [18]: 0 |
